In publication PMC2706954, “Dissecting Structural and Functional Diversity of the Lantibiotic Mersacidin” (Chemistry & Biology, 2009):
In brackets after ≈: the same amount, converted by molar mass.

Columns and labels:
S. pneumoniae BAA-255 = format: cell-based, Streptococcus pneumoniae; conditions: BAA-255
Protocol: (§1) Antibacterial activity of fermentation samples or purified samples was determined by Mueller-Hinton Agar diffusion bioassays using M. luteus ATCC 4698 as the indicator strain. Susceptibility testing (minimum inhibitory concentration [MIC]) for all aerobic organisms, with the exception of S. pneumoniae, was performed following the recommendations of CLSI. Susceptibility testing of S. pneumoniae was performed by two-fold serial dilutions in brain-heart-infusion broth supplemented with 50 μg/ml Ca^2+. Vancomycin was used as a reference antibiotic, and plates were incubated aerobically, with shaking, for 18–20 hr at 37°C with the MIC defined as the lowest concentration of drug that prevented visible growth.

S. aureus R33 MRSA = format: cell-based, Staphylococcus aureus; conditions: R33
Protocol: as §1

S. aureus SH1000 = format: cell-based, Staphylococcus aureus; conditions: SH1000
Protocol: as §1

E. faecalis ATCC29212 = format: cell-based; conditions: ATCC29212
Protocol: as §1

E. faecium 7131121 VRE = format: cell-based; conditions: 7131121 VRE
Protocol: as §1

S. epidermidis NCTC11047 = format: cell-based; conditions: NCTC11047
Protocol: as §1

E. faecium ATCC19579 = format: cell-based; conditions: ATCC19579
Protocol: as §1

M. luteus ATCC4698 = format: cell-based, Micrococcus luteus; conditions: ATCC4698
Protocol: as §1

MIC S. pneumoniae BAA-255 (S. pneumoniae BAA-255) [µg/mL]	MIC S. aureus R33 MRSA (S. aureus R33 MRSA) [µg/mL]	MIC S. aureus SH1000 (S. aureus SH1000) [µg/mL]	MIC E. faecalis ATCC29212 (E. faecalis ATCC29212) [µg/mL]	MIC E. faecium 7131121 VRE (E. faecium 7131121 VRE) [µg/mL]	MIC S. epidermidis NCTC11047 (S. epidermidis NCTC11047) [µg/mL]	MIC E. faecium ATCC19579 (E. faecium ATCC19579) [µg/mL]	MIC M. luteus ATCC4698 (M. luteus ATCC4698) [µg/mL]	SMILES
2 (≈ 1.1 µM)	16 (≈ 8.82 µM)	32 (≈ 17.6 µM)	64 (≈ 35.3 µM)	64 (≈ 35.3 µM)	16 (≈ 8.82 µM)	32 (≈ 17.6 µM)	–	CC[C@H](C)[C@@H]1NC(=O)[C@@H]2CSC(C)C(NC(=O)[C@@H]3CSC(C)C(NC(=O)[C@H](Cc4ccccc4)NC(=O)C4NC(=O)[C@@H](N)CSC4C)C(=O)N[C@@H](CC(C)C)C(=O)N4CCC[C@H]4C(=O)NCC(=O)NCC(=O)NCC(=O)NCC(=O)N[C@@H](C(C)C)C(=O)N3)C(=O)N[C@@H](CC(C)C)C(=O)NC(C(=O)NCC(=O)N[C@@H](CCC(=O)O)C(=O)N2)C(C)SC=CNC1=O (some centres unmarked) [S16G]
16 (≈ 8.39 µM)	–	32 (≈ 16.8 µM)	>64	>64	32 (≈ 16.8 µM)	64 (≈ 33.6 µM)	< 4	C=C1NC(=O)C2NC(=O)[C@H](CC(C)C)NC(=O)C(NC(=O)[C@@H]3CSC(C)C(NC(=O)[C@H](Cc4ccccc4)NC(=O)C4NC(=O)[C@@H](N)CSC4C)C(=O)N[C@@H](CC(C)C)C(=O)N4CCC[C@H]4C(=O)NCC(=O)NCC(=O)N[C@@H](Cc4c[nH]cn4)C(=O)NCC(=O)N[C@@H](C(C)C)C(=O)N3)C(C)SC[C@H](NC(=O)[C@H](CCC(=O)O)NC1=O)C(=O)N[C@@H]([C@@H](C)CC)C(=O)NC=CSC2C (some centres unmarked) [G9H]
–	32 (≈ 17.4 µM)	64 (≈ 34.8 µM)	64 (≈ 34.8 µM)	32 (≈ 17.4 µM)	16 (≈ 8.69 µM)	32 (≈ 17.4 µM)	–	C=C1NC(=O)C2NC(=O)[C@H](CC(C)C)NC(=O)C(NC(=O)[C@@H]3CSC(C)C(NC(=O)[C@H](Cc4ccccc4)NC(=O)C4NC(=O)[C@@H](N)CSC4C)C(=O)N[C@@H](CC(C)C)C(=O)N4CCC[C@H]4C(=O)NCC(=O)NCC(=O)NCC(=O)NCC(=O)N[C@@H](CC(C)C)C(=O)N3)C(C)SC[C@H](NC(=O)[C@H](CCC(=O)O)NC1=O)C(=O)N[C@@H]([C@@H](C)CC)C(=O)NC=CSC2C (some centres unmarked) [V11L]
4 (≈ 2.19 µM)	16 (≈ 8.75 µM)	64 (≈ 35 µM)	64 (≈ 35 µM)	>64	32 (≈ 17.5 µM)	32 (≈ 17.5 µM)	2 (≈ 1.09 µM)	CC[C@H](C)[C@@H]1NC(=O)[C@@H]2CSC(C)C(NC(=O)[C@@H]3CSC(C)C(NC(=O)[C@H](Cc4ccccc4)NC(=O)C4NC(=O)[C@@H](N)CSC4C)C(=O)N[C@@H](CC(C)C)C(=O)N4CCC[C@H]4C(=O)NCC(=O)NCC(=O)NCC(=O)NCC(=O)N[C@@H](C(C)C)C(=O)N3)C(=O)N[C@@H](CC(C)C)C(=O)NC(C(=O)N[C@@H](C)C(=O)N[C@@H](CCC(=O)O)C(=O)N2)C(C)SC=CNC1=O (some centres unmarked) [S16A]
16 (≈ 8.5 µM)	–	64 (≈ 34 µM)	>64	>64	32 (≈ 17 µM)	64 (≈ 34 µM)	< 4	C=C1NC(=O)C2NC(=O)[C@H](CC(C)C)NC(=O)C(NC(=O)[C@@H]3CSC(C)C(NC(=O)[C@H](Cc4ccccc4)NC(=O)C4NC(=O)[C@@H](N)CSC4C)C(=O)N[C@@H](CC(C)C)C(=O)N4CCC[C@H]4C(=O)N[C@@H](CC(N)=O)C(=O)NCC(=O)NCC(=O)NCC(=O)N[C@@H](C(C)C)C(=O)N3)C(C)SC[C@H](NC(=O)[C@H](CCC(=O)O)NC1=O)C(=O)N[C@@H]([C@@H](C)CC)C(=O)NC=CSC2C (some centres unmarked) [G7N]
8 (≈ 4.35 µM)	8 (≈ 4.35 µM)	32 (≈ 17.4 µM)	>64	>64	32 (≈ 17.4 µM)	64 (≈ 34.8 µM)	< 4	C=C1NC(=O)C2NC(=O)[C@H](CC(C)C)NC(=O)C(NC(=O)[C@@H]3CSC(C)C(NC(=O)[C@H](Cc4ccccc4)NC(=O)C4NC(=O)[C@@H](N)CSC4C)C(=O)N[C@@H](CC(C)C)C(=O)N4CCC[C@H]4C(=O)NCC(=O)NCC(=O)N[C@@H](C)C(=O)NCC(=O)N[C@@H](C(C)C)C(=O)N3)C(C)SC[C@H](NC(=O)[C@H](CCC(=O)O)NC1=O)C(=O)N[C@@H]([C@@H](C)CC)C(=O)NC=CSC2C (some centres unmarked) [G9A]
>64	–	>64	>64	>64	64 (≈ 34.8 µM)	64 (≈ 34.8 µM)	64 (≈ 34.8 µM)	C=C1NC(=O)C2NC(=O)[C@H](CC(C)C)NC(=O)C(NC(=O)[C@@H]3CSC(C)C(NC(=O)[C@H](Cc4ccccc4)NC(=O)C4NC(=O)[C@@H](N)CSC4C)C(=O)N[C@@H](CC(C)C)C(=O)N4CCC[C@H]4C(=O)N[C@@H](C)C(=O)NCC(=O)NCC(=O)NCC(=O)N[C@@H](C(C)C)C(=O)N3)C(C)SC[C@H](NC(=O)[C@H](CCC(=O)O)NC1=O)C(=O)N[C@@H]([C@@H](C)CC)C(=O)NC=CSC2C (some centres unmarked) [G7A]
32 (≈ 17.2 µM)	32 (≈ 17.2 µM)	64 (≈ 34.4 µM)	64 (≈ 34.4 µM)	64 (≈ 34.4 µM)	–	32 (≈ 17.2 µM)	16 (≈ 8.61 µM)	C=C1NC(=O)C2NC(=O)[C@H](CC(C)C)NC(=O)C(NC(=O)[C@@H]3CSC(C)C(NC(=O)[C@H](Cc4ccccc4)NC(=O)C4NC(=O)[C@@H](N)CSC4C)C(=O)N[C@@H](CC(C)C)C(=O)N4CCC[C@H]4C(=O)NCC(=O)NCC(=O)NCC(=O)NCC(=O)N[C@@H](CCSC)C(=O)N3)C(C)SC[C@H](NC(=O)[C@H](CCC(=O)O)NC1=O)C(=O)N[C@@H]([C@@H](C)CC)C(=O)NC=CSC2C (some centres unmarked) [V11M]
–	8 (≈ 4.29 µM)	16 (≈ 8.58 µM)	32 (≈ 17.2 µM)	32 (≈ 17.2 µM)	8 (≈ 4.29 µM)	16 (≈ 8.58 µM)	0.5 (≈ 0.268 µM)	C=C1NC(=O)C2NC(=O)[C@H](CC(C)C)NC(=O)C(NC(=O)[C@@H]3CSC(C)C(NC(=O)[C@H](Cc4c[nH]c5ccccc45)NC(=O)C4NC(=O)[C@@H](N)CSC4C)C(=O)N[C@@H](CC(C)C)C(=O)N4CCC[C@H]4C(=O)NCC(=O)NCC(=O)NCC(=O)NCC(=O)N[C@@H](C(C)C)C(=O)N3)C(C)SC[C@H](NC(=O)[C@H](CCC(=O)O)NC1=O)C(=O)N[C@@H]([C@@H](C)CC)C(=O)NC=CSC2C (some centres unmarked) [F3W]
4 (≈ 2.21 µM)	16 (≈ 8.83 µM)	32 (≈ 17.7 µM)	64 (≈ 35.3 µM)	>64	16 (≈ 8.83 µM)	64 (≈ 35.3 µM)	–	C=C1NC(=O)C2NC(=O)[C@H](C(C)C)NC(=O)C(NC(=O)[C@@H]3CSC(C)C(NC(=O)[C@H](Cc4ccccc4)NC(=O)C4NC(=O)[C@@H](N)CSC4C)C(=O)N[C@@H](CC(C)C)C(=O)N4CCC[C@H]4C(=O)NCC(=O)NCC(=O)NCC(=O)NCC(=O)N[C@@H](C(C)C)C(=O)N3)C(C)SC[C@H](NC(=O)[C@H](CCC(=O)O)NC1=O)C(=O)N[C@@H]([C@@H](C)CC)C(=O)NC=CSC2C (some centres unmarked) [L14V]
